BindingDB's records for PubMed 12533678 (Japanese Foundation For Cancer Research, 2003)

How the values were obtained:
[1] = TP_TRANSPORTER: drug resistance(SN-38) in BCRP-expressing K562 cells
[2] = TP_TRANSPORTER: drug resistance(Mitoxantrone) in BCRP-expressing K562 cells

| IC50 [1] | SMILES | IC50 [2] |
| --- | --- | --- |
| > 500 nM | CC/C(=C(/CC)c1ccc(O)cc1)c1ccc(O)cc1 | 500 nM |
| > 2000 nM | CC/C(=C(/c1ccc(OCCN(C)C)cc1)c1ccc(OCc2ccc([N+](=O)[O-])cc2)cc1)c1ccccc1 | 1500 nM |
| > 2000 nM | CC/C(=C(/c1ccc(OCCN(C)C)cc1)c1ccc(OCc2ccccc2)cc1)c1ccccc1 | > 2000 nM |
| > 3000 nM | CCC(=O)Oc1ccc(/C(CC)=C(\CC)c2ccc(OC(=O)CC)cc2)cc1 [propanoic acid [4-[(E)-4-[4-(1-oxopropoxy)phenyl]hex-3-en-3-yl]phenyl] ester] | > 3000 nM |
